Measured values from patent US9023789B2, “Amylin analogs and pharmaceutical compositions thereof” (Novo Nordisk A/S, priority 2012, dated 2015).
Values after ≈ are worked out from the molar mass of the structure shown. Where two headings read alike, the source gives them in different places. One block for each compound: values may come before it. Numbered stars: 1 amine (or outer) side, 2 acyl side, 3 side chain; on linkers, the order of the positions; unused ones are H or OH. Bridge positions count the residues as written; N and C are the ends. Side chains are listed from the residue outwards. Peptide text beside a SMILES is read from it. * marks the point of attachment. C20 diacid = O=C(O)CCCCCCCCCCCCCCCCCCC(=O)*; γGlu = O=C(O)[C@H](CCC(=O)[*:2])N[*:1]; AEEA = NCCOCCOCC(=O)O

Tests used:
[1] = ASSAY (IV) determination of solubility; type: physicochemical
Summary of the method: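 Dissolve polypeptide in water ([…] stock); combine 1:1 with each 100 mM buffer (glycylglycine pH 3.0/4.0/5.0; bistrispropane pH 6.0/6.5/7.0/7.5/8.0); hold 18 hours at room temperature; centrifuge; quantify polypeptide by UPLC.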

[2] = target: T1, rat amylin receptor (rat calcitonin receptor + rat RAMP 3) (Rattus norvegicus, UniProt P32214+Q9JJ73); assay: ASSAY (VI) binding to the rat amylin receptor
T1 construct: expressed in transfected cells; host or cells: BHK tk'ts 13 (transient, FuGENE 6), membranes
T1 sequence (P32214 25-479 isoform P32214-2 limits assumed): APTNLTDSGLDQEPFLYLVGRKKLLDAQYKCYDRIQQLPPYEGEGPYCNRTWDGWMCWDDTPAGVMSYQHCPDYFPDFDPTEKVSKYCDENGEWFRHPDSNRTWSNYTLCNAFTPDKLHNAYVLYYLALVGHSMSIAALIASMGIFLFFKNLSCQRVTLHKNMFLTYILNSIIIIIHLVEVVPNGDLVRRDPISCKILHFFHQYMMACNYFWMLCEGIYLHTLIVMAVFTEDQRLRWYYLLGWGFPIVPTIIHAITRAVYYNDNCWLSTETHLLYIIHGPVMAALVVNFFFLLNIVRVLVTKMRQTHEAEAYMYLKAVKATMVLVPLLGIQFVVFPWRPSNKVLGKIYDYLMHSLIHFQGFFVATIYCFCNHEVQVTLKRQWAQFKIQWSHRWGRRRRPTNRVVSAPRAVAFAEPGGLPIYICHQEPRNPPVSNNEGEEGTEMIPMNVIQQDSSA
T1 sequence (Q9JJ73 23-147 partner): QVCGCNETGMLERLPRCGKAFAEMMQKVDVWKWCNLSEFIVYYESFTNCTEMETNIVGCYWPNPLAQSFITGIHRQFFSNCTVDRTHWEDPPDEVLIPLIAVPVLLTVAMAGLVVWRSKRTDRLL
Summary of the method: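 Binding to the rat amylin receptor was determined with membrane preparations. The receptor was expressed by transiently transfecting BHK tk′ts 13 cells with rat calcitonin receptor, using FuGENE® 6 (Roche) according to the manufacturer's recommendations. Roughly 48 hours later the cells were harvested and their membranes isolated.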

[3] = target: T2, rat calcitonin receptor (Rattus norvegicus, UniProt P32214); assay: ASSAY (VIII) binding to the rat calcitonin receptor; details: Table 7, read-out: rCTR bind IC50
T2 construct: expressed in transfected cells; host or cells: BHK tk'ts 13 (transient, FuGENE 6), membranes
T2 sequence (P32214 25-479 isoform P32214-2 limits assumed): T1 sequence (P32214 25-479 isoform P32214-2 limits assumed)
Summary of the method: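 Rat calcitonin receptor is expressed transiently in BHK tk′ts 13 cells cultured in DMEM with 10% FBS. Roughly two days (approximately 48 hours) post-transfection, cells are harvested for membrane preparation.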

[4] = target: T3, human amylin receptor (membranes from Amylin 3(a)/CRE-luc cells) (Homo sapiens, UniProt O60896+P30988); assay: ASSAY (V) binding to the human amylin receptor (SPA, 125I-rat amylin);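 further: competition binding of cell membranes (35 ng/µL) mixed with SPA beads in 384-well plates at 40 µL total volume, read by scintillation counting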
T3 construct: expressed in transfected cells
T3 sequence (P30988 25-474): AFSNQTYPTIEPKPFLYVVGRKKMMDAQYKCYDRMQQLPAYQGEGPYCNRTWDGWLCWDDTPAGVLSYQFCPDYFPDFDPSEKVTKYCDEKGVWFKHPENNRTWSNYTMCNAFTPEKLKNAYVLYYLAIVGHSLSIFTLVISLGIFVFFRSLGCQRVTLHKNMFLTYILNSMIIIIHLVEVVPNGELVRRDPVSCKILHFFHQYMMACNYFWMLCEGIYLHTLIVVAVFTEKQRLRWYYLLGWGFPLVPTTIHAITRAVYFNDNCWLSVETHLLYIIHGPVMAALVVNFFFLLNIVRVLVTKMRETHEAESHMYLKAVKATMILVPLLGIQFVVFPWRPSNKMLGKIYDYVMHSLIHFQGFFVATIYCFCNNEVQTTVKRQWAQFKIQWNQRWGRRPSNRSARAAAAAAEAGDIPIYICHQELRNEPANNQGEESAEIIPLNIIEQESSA
T3 sequence (O60896 24-148 partner): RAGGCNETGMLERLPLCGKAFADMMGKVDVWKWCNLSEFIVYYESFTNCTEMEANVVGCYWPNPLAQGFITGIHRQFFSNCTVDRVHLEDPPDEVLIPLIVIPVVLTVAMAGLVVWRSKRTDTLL

[5] = target: T4, human calcitonin receptor (Homo sapiens, UniProt P30988); assay: ASSAY (VII) binding to the human calcitonin receptor (SPA, 125I-Calcitonin);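 further: cell membranes (35 ng/µL) combined with SPA beads in 40 µL of pH 7.4 Hepes buffer, 384-well format, signal counted on a TopCounter instrument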
T4 construct: expressed in transfected cells
T4 sequence (P30988 25-474): T3 sequence (P30988 25-474)

[6] = target: T5, human calcitonin (a) receptor in BHK570 cells (Homo sapiens, UniProt P30988); assay: ASSAY (II)a functional assay, human calcitonin receptor (CRE luciferase); type: cell-based
T5 construct: expressed in transfected cells
T5 sequence (P30988 25-474): T3 sequence (P30988 25-474)
Summary of the method: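 BHK cells stably carrying a CRE-luciferase reporter plus calcitonin receptor, or calcitonin receptor with RAMP-3 for the amylin 3(a) receptor, were seeded and kept overnight at 37° C. Compounds were added in assay medium with 10% FBS and 10 mM Hepes, pH 7.4, for 3 hours at 37° C, then luminescence was counted.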

[7] = Table 7, rat binding selectivity, rCTR IC50 / rAmylin-R IC50
[8] = Table 7a (preferred compounds), rat binding selectivity, rCTR IC50 / rAmylin-R IC50
[9] = ratio of rCTR bind IC50 to rAmylin-R bind IC50
[10] = Table 5, selectivity, hCTR bind IC50 / hAmylin-R bind IC50
[11] = Table 5a, selectivity, hCTR bind IC50 / hAmylin-R bind IC50
[12] = Table 5b, selectivity, hCTR bind IC50 / hAmylin-R bind IC50
[13] = Table 5c, selectivity, hCTR bind IC50 / hAmylin-R bind IC50
[14] = Table 7, human binding selectivity, included for comparison
[15] = Table 7a (preferred compounds), human binding selectivity, included for comparison
[16] = ratio of human calcitonin receptor binding IC50 to human amylin receptor binding IC50

solubility at 18 h ([1]; bistrispropane buffer, pH 6.5, read-out: Solubility pH 6.5 Concentration): ≥ 200 µM
solubility at 18 h ([1]; bistrispropane buffer, pH 7.5, read-out: Solubility pH 7.5 Concentration): ≥ 200 µM
solubility at 18 h ([1]; bistrispropane buffer, pH 6.0, read-out: Solubility pH 6.0 Concentration): ≥ 200 µM
solubility at 18 h ([1]; bistrispropane buffer, pH 7.0, read-out: Solubility pH 7.0 Concentration): ≥ 200 µM
solubility at 18 h ([1]; bistrispropane buffer, pH 8.0, read-out: Solubility pH 8.0 Concentration): ≥ 200 µM
solubility at 18 h ([1]; glycylglycine buffer, pH 3.0, read-out: Solubility pH 3.0 Concentration): ≥ 200 µM
solubility at 18 h ([1]; glycylglycine buffer, pH 4.0, read-out: Solubility pH 4.0 Concentration): ≥ 200 µM
solubility at 18 h ([1]; glycylglycine buffer, pH 5.0, read-out: Solubility pH 5.0 Concentration): ≥ 200 µM
IC50 ([2]; Table 7, binding to rat amylin receptor, read-out: rAmylin-R bind IC50): 0.491 nM
Ratio rCT/rAmylin binding [2, 7]: 309.2
Ratio rCT/rAmylin binding [2, 8]: 309.2
Ratio rCT/rAmylin binding [2, 9]: 309.2
IC50 [3]: 152 nM
IC50 ([4]; Table 4, read-out: hAmylin-R bind IC50): 0.532 nM
Ratio hCT/hAmylin binding [4, 10]: 47.5
Ratio hCT/hAmylin binding [4, 11]: 47.5
Ratio hCT/hAmylin binding [4, 12]: 47.5
Ratio hCT/hAmylin binding [4, 13]: 47.5
Ratio hCT/hAmylin binding [4, 14]: 47.5
Ratio hCT/hAmylin binding [4, 15]: 47.5
Ratio hCT/hAmylin binding [4, 16]: 47.5
IC50 ([5]; read-out: hCTR bind IC50): 25.3 nM
EC50 ([6]; read-out: hCTR funct. EC50): 6.34 nM
SMILES: CC[C@H](C)[C@H](NC(=O)[C@H](C)NC(=O)CNC(=O)[C@H](Cc1ccccc1)NC(=O)[C@H](CC(N)=O)NC(=O)[C@@H]1CCCN1C(=O)[C@H](CO)NC(=O)[C@H](CO)NC(=O)[C@H](Cc1c[nH]cn1)NC(=O)[C@H](CCCNC(=N)N)NC(=O)[C@H](CC(C)C)NC(=O)[C@H](Cc1ccccc1)NC(=O)[C@H](CC(N)=O)NC(=O)[C@H](C)NC(=O)[C@H](CC(C)C)NC(=O)[C@H](CCCNC(=N)N)NC(=O)[C@H](CCC(N)=O)NC(=O)[C@@H](NC(=O)[C@H](C)NC(=O)[C@@H]1CSSC[C@H](NC(=O)[C@@H](N)CCCCNC(=O)COCCOCCNC(=O)CC[C@H](NC(=O)CCCCCCCCCCCCCCCCCCC(=O)O)C(=O)O)C(=O)N[C@@H](CC(N)=O)C(=O)N[C@@H]([C@@H](C)O)C(=O)N[C@@H](C)C(=O)N[C@@H]([C@@H](C)O)C(=O)N1)[C@@H](C)O)C(=O)N1CCC[C@H]1C(=O)N[C@@H](CO)C(=O)N[C@@H](CO)C(=O)N[C@H](C(=O)N[C@@H](CC(N)=O)C(=O)N[C@H](C(=O)NCC(=O)N[C@@H](CO)C(=O)N[C@@H](CCC(=O)O)C(=O)N[C@H](C(=O)N[C@@H](Cc1ccc(O)cc1)C(N)=O)[C@@H](C)O)C(C)C)[C@@H](C)O [Example 26] (H-K([AEEA-γGlu-C20 diacid])CNTATCATQRLANFLRHSSPNFGAIPSSTNVGSETY-NH2; disulfide 2-7; N-terminus assumed)

SMILES: CC[C@H](C)[C@H](NC(=O)[C@H](C)NC(=O)CNC(=O)[C@H](Cc1ccccc1)NC(=O)[C@H](CC(N)=O)NC(=O)[C@@H]1CCCN1C(=O)[C@H](CO)NC(=O)[C@H](CO)NC(=O)[C@H](Cc1c[nH]cn1)NC(=O)[C@H](CCCNC(=N)N)NC(=O)[C@H](CC(C)C)NC(=O)[C@H](Cc1ccccc1)NC(=O)[C@H](C)NC(=O)[C@H](C)NC(=O)[C@H](CC(C)C)NC(=O)[C@H](CCCNC(=N)N)NC(=O)[C@H](CCC(N)=O)NC(=O)[C@@H](NC(=O)[C@H](C)NC(=O)[C@@H]1CSSC[C@H](NC(=O)[C@H](CCCNC(=N)N)NC(=O)CNC(=O)CC[C@H](NC(=O)CCCCCCCCCCCCCCCCCCC(=O)O)C(=O)O)C(=O)N[C@@H](CC(N)=O)C(=O)N[C@@H]([C@@H](C)O)C(=O)N[C@@H](C)C(=O)N[C@@H]([C@@H](C)O)C(=O)N1)[C@@H](C)O)C(=O)N1CCC[C@H]1C(=O)N[C@@H](CO)C(=O)N[C@@H](CO)C(=O)N[C@H](C(=O)N[C@@H](CC(N)=O)C(=O)N[C@H](C(=O)NCC(=O)N1CCC[C@H]1C(=O)N[C@@H](CC(N)=O)C(=O)N[C@H](C(=O)N[C@@H](Cc1ccc(O)cc1)C(N)=O)[C@@H](C)O)C(C)C)[C@@H](C)O [Example 103] ({C20 diacid-γGlu}-GRCNTATCATQRLAAFLRHSSPNFGAIPSSTNVGPNTY-NH2; disulfide 3-8)
solubility at 18 h ([1]; pH 3.0, read-out: Solubility pH 3.0 Concentration): ≥ 200 µM
solubility at 18 h ([1]; pH 4.0, read-out: Solubility pH 4.0 Concentration): ≥ 200 µM
solubility at 18 h ([1]; pH 5.0, read-out: Solubility pH 5.0 Concentration): ≥ 200 µM
solubility at 18 h ([1]; pH 6.0, read-out: Solubility pH 6.0 Concentration): ≥ 200 µM
solubility at 18 h ([1]; pH 6.5, read-out: Solubility pH 6.5 Concentration): ≥ 200 µM
solubility at 18 h ([1]; pH 7.0, read-out: Solubility pH 7.0 Concentration): ≥ 200 µM
solubility at 18 h ([1]; pH 7.5, read-out: Solubility pH 7.5 Concentration): 141 µM (≈ 625 µg/mL)
solubility at 18 h ([1]; pH 8.0, read-out: Solubility pH 8.0 Concentration): 194 µM (≈ 860 µg/mL)
IC50 [2]: 0.436 nM
Ratio rCT/rAmylin binding [2, 7]: 129.1
Ratio rCT/rAmylin binding [2, 8]: 129.1
Ratio rCT/rAmylin binding [2, 9]: 129.1
IC50 [3]: 56.3 nM
IC50 [4]: 0.114 nM
Ratio hCT/hAmylin binding [4, 10]: 26.5
Ratio hCT/hAmylin binding [4, 11]: 26.5
Ratio hCT/hAmylin binding [4, 12]: 26.5
Ratio hCT/hAmylin binding [4, 13]: 26.5
Ratio hCT/hAmylin binding [4, 14]: 26.5
Ratio hCT/hAmylin binding [4, 15]: 26.5
Ratio hCT/hAmylin binding [4, 16]: 26.5
IC50 [5]: 3 nM
EC50 [6]: 0.148 nM
